For one assay, the system named is TNFα. Briefly: cells. Format: cell-based, human. The conditions noted are these: Homo sapiens, Monocyte, LPS-stimulated human monocytes, TNFα content; read-out: EC50 TNF.
Another assay addresses IRAK4 enzyme (Homo sapiens (Human), UniProt Q9NWZ3). Kind of assay: biochemical. Format: biochemical. Particulars: IRAK4 enzyme, TR-FRET, 500 μM ATP.

Sequence of IRAK4 enzyme (Q9NWZ3 whole entry): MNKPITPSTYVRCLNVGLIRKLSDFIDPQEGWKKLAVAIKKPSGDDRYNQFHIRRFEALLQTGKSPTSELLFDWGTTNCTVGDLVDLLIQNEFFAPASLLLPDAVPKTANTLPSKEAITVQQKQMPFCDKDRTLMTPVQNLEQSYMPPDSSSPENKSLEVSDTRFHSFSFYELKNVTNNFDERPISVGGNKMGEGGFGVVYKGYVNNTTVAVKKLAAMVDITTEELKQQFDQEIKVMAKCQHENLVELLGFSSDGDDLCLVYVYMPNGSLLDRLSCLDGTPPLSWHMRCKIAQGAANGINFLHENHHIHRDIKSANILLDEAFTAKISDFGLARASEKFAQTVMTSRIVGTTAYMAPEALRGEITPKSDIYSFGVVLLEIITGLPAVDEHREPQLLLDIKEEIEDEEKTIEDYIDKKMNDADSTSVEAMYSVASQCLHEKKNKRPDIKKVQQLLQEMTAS

Take `CC(C)(O)[C@H](F)CNC(=O)c1cnc(-c2ccc3cc(C#N)cnn23)cc1NC1CCC(C(=O)N2CCOCC2)CC1` (stereo partly drawn) [Example 173, 6-(3-cyanopyrrolo[1,2-b]pyridazin-7-yl)-N-((R)-2-fluoro-3-hydroxy-3-methylbutyl)-4-(((1r,4R)-4-(morpholine-4-carbonyl)cyclohexyl)amino) nicotinamide]: the EC50 in the assay on TNFα is 148 nM. At IRAK4 enzyme, this molecule gave an IC50 of 2 nM.

For `CC(C)(O)[C@H](F)CNC(=O)c1cnc(-c2ccc3cc(C#N)cnn23)cc1NC1CCC(C(=O)N2CC(F)(F)C2)CC1` (stereo partly drawn) [Example 174, 6-(3-cyanopyrrolo[1,2-b]pyridazin-7-yl)-4-(((1r,4R)-4-(3,3-difluoroazetidine-1-carbonyl)cyclohexyl)amino)-N-((R)-2-fluoro-3-hydroxy-3-methylbutyl)nicotinamide], the EC50 in the assay on TNFα worked out at 92 nM. The molecule also showed a half-maximal inhibitory concentration (IC50) against IRAK4 enzyme of 1 nM.

As to `CC(C)(O)[C@H](F)CNC(=O)c1cnc(-c2ccc3cc(C#N)cnn23)cc1Nc1ccc(-c2nc[nH]n2)cc1` [Example 175, (R)-4-((4-(1H-1,2,4-triazol-3-yl)phenyl)amino)-6-(3-cyanopyrrolo[1,2-b]pyridazin-7-yl)-N-(2-fluoro-3-hydroxy-3-methylbutyl)nicotinamide], in the assay with TNFα, the EC50 amounted to 20 nM. In addition, the IC50 on IRAK4 enzyme was under 1 nM.

Consider `CC(C)(O)[C@H](F)CNC(=O)c1cnc(-c2ccc3cc(C#N)cnn23)cc1Nc1ccc(-n2ncnn2)cc1` [Example 176, (R)-4-((4-(2H-tetrazol-2-yl)phenyl)amino)-6-(3-cyanopyrrolo[1,2-b]pyridazin-7-yl)-N-(2-fluoro-3-hydroxy-3-methylbutyl)nicotinamide], for which the EC50 with TNFα is over 10000 nM. The molecule further gave an IC50 at IRAK4 enzyme of 1 nM.

With `CC(C)(O)[C@H](F)CNC(=O)c1cnc(-c2ccc3cc(C#N)cnn23)cc1Nc1ccc(-c2cc[nH]n2)cc1` [Example 177, (R)-4-((4-(1H-pyrazol-3-yl)phenyl)amino)-6-(3-cyanopyrrolo[1,2-b]pyridazin-7-yl)-N-(2-fluoro-3-hydroxy-3-methylbutyl)nicotinamide], the EC50 in the assay on TNFα is 29 nM. At IRAK4 enzyme, this molecule had an IC50 of under 1 nM.

For `CC(C)(O)[C@H](F)CNC(=O)c1cnc(-c2ccc3cc(C#N)cnn23)cc1Nc1ccc(-c2cn[nH]c2)cc1` [Example 178, (R)-4-((4-(1H-pyrazol-4-yl)phenyl)amino)-6-(3-cyanopyrrolo[1,2-b]pyridazin-7-yl)-N-(2-fluoro-3-hydroxy-3-methylbutyl)nicotinamide], the EC50 with TNFα is 10 nM. On IRAK4 enzyme, this molecule displayed an IC50 of under 1 nM.

Turning to `Cn1cnc(-c2ccc(Nc3cc(-c4ccc5cc(C#N)cnn45)ncc3C(=O)NC[C@@H](F)C(C)(C)O)cc2)n1` [Example 179, (R)-6-(3-cyanopyrrolo[1,2-b]pyridazin-7-yl)-N-(2-fluoro-3-hydroxy-3-methylbutyl)-4-((4-(1-methyl-1H-1,2,4-triazol-3-yl)phenyl)amino) nicotinamide], the EC50 with TNFα was found to be 59 nM. Also, at IRAK4 enzyme, the IC50 came out at 1 nM.

On to `CC(C)(O)[C@H](F)CNC(=O)c1cnc(-c2ccc3cc(C#N)cnn23)cc1Nc1ccc(-n2ccnn2)cc1` [Example 180, (R)-4-((4-(1H-1,2,3-triazol-1-yl)phenyl)amino)-6-(3-cyanopyrrolo[1,2-b]pyridazin-7-yl)-N-(2-fluoro-3-hydroxy-3-methylbutyl)nicotinamide], for which the EC50 with TNFα came out at 34 nM. Besides, the IC50 against IRAK4 enzyme is under 1 nM.

For `CC(C)(O)[C@H](F)CNC(=O)c1cnc(-c2ccc3cc(C#N)cnn23)cc1NCc1cn[nH]c1` [Example 181, (R)-4-(((1H-pyrazol-4-yl)methyl)amino)-6-(3-cyanopyrrolo[1,2-b]pyridazin-7-yl)-N-(2-fluoro-3-hydroxy-3-methylbutyl)nicotinamide], in the assay on TNFα, the EC50 was over 10000 nM. The molecule also had an IC50 on IRAK4 enzyme of 1000 nM.

For the molecule `CNC(=O)C1CCC(Nc2cc(-c3ccc4cc(C#N)cnn34)ncc2C(=O)NC[C@@H](F)C(C)(C)O)CC1` (stereo partly drawn) [Example 182, 6-(3-cyanopyrrolo[1,2-b]pyridazin-7-yl)-N-((R)-2-fluoro-3-hydroxy-3-methylbutyl)-4-(((1r,4R)-4-(methylcarbamoyl)cyclohexyl)amino) nicotinamide], in the assay with TNFα, the EC50 stood at 70 nM. The same molecule gave a concentration for half-maximal inhibition (IC50) against IRAK4 enzyme of 1 nM.

On to `CC(C)(O)[C@H](F)CNC(=O)c1cnc(-c2ccc3cc(C#N)cnn23)cc1Nc1ccnnc1` [Example 183, (R)-6-(3-cyanopyrrolo[1,2-b]pyridazin-7-yl)-N-(2-fluoro-3-hydroxy-3-methylbutyl)-4-(pyridazin-4-ylamino)nicotinamide], for which the EC50 in the assay with TNFα was 657 nM. Further, on IRAK4 enzyme, the half-maximal inhibitory concentration (IC50) stood at 6 nM.

For the molecule `Cc1ccc(Nc2cc(-c3ccc4cc(C#N)cnn34)ncc2C(=O)NC[C@@H](F)C(C)(C)O)cn1` [Example 184, (R)-6-(3-cyanopyrrolo[1,2-b]pyridazin-7-yl)-N-(2-fluoro-3-hydroxy-3-methylbutyl)-4-((6-methylpyridin-3-yl)amino)nicotinamide], the EC50 in the assay on TNFα came out at 48 nM. Besides, the IC50 on IRAK4 enzyme is under 1 nM.

Regarding `CC(C)(O)[C@H](F)CNC(=O)c1cnc(-c2ccc3cc(C#N)cnn23)cc1Nc1cnccn1` [Example 185, (R)-6-(3-cyanopyrrolo[1,2-b]pyridazin-7-yl)-N-(2-fluoro-3-hydroxy-3-methylbutyl)-4-(pyrazin-2-ylamino)nicotinamide], in the assay with TNFα, the EC50 was determined as 46 nM. This molecule also showed an IC50 against IRAK4 enzyme of under 1 nM.

On to `CC(C)(O)[C@H](F)CNC(=O)c1cnc(-c2ccc3cc(C#N)cnn23)cc1Nc1ccc(C(F)(F)F)nc1` [Example 186, (R)-6-(3-cyanopyrrolo[1,2-b]pyridazin-7-yl)-N-(2-fluoro-3-hydroxy-3-methylbutyl)-4-((6-(trifluoromethyl)pyridin-3-yl)amino)nicotinamide], for which the EC50 in the assay on TNFα worked out at 145 nM. Also, the IC50 on IRAK4 enzyme came to 1 nM.

Consider `Cc1cc(Nc2cc(-c3ccc4cc(C#N)cnn34)ncc2C(=O)NC[C@@H](F)C(C)(C)O)cnc1F` [Example 187, (R)-6-(3-cyanopyrrolo[1,2-b]pyridazin-7-yl)-N-(2-fluoro-3-hydroxy-3-methylbutyl)-4-((6-fluoro-5-methylpyridin-3-yl)amino) nicotinamide], for which, in the assay on TNFα, the EC50 worked out at 152 nM. Besides, the IC50 on IRAK4 enzyme came out at 1 nM.

As to `CC(C)Nc1cc(-c2ccc3cc(C#N)cnn23)ncc1C(=O)N[C@@H]1CC[C@@H](O)C1` [Example 188, 6-(3-cyanopyrrolo[1,2-b]pyridazin-7-yl)-N-((1R,3R)-3-hydroxycyclopentyl)-4-(isopropylamino) nicotinamide], in the assay on TNFα, the EC50 was found to be 275 nM. For the same molecule, on IRAK4 enzyme, the IC50 is 8 nM.

For the molecule `CC(C)Nc1cc(-c2ccc3cc(C#N)cnn23)ncc1C(=O)N[C@H]1CC[C@H](O)C1` [Example 189, 6-(3-cyanopyrrolo[1,2-b]pyridazin-7-yl)-N-((1S,3S)-3-hydroxycyclopentyl)-4-(isopropylamino) nicotinamide], in the assay with TNFα, the EC50 came to 136 nM. Also, the IC50 on IRAK4 enzyme is 6 nM.

Regarding `CC(C)Nc1cc(-c2ccc3cc(C#N)cnn23)ncc1C(=O)N[C@H]1CCC[C@@H](O)C1` [Example 190, 6-(3-cyanopyrrolo[1,2-b]pyridazin-7-yl)-N-((1S,3R)-3-hydroxycyclohexyl)-4-(isopropylamino) nicotinamide], the EC50 with TNFα amounted to 209 nM. Besides, the IC50 against IRAK4 enzyme turned out to be 8 nM.

For the origin of these results see patent US10336762B2 (priority 2017, dated 2019).
